In patent US7705009B2, “4-aminopyrimidine-5-thione derivatives” (Hoffman-La Roche Inc., priority 2005, dated 2010):
pIC50, pKi: −log10 of the molar value. Where two headings read alike, the source gives them in different places.

Columns and labels:
human cyclin E-CDK2 = human cyclin E-CDK2 (Homo sapiens, UniProt P24941); test: CDK2 HTRF kinase assay (Ki measurement); format: biochemical
Description: (§1) To determine inhibition of Cdk4, Cdk2 and Cdk1 activity, kinase assays were conducted using FlashPlate™ assays (NEN™-Life Science Products). FlashPlate assays were performed using recombinant human cyclin B-CDK1, human cyclin E-CDK2 or human cyclin D1-CDK4 complexes. GST-cyclinE (GST-cycE), CDK2, GST-cyclinB (GST-cycB), CDK1, GST-CDK4 and cyclin D1 (cycD1) cDNA clones in baculovirus vectors were provided by Dr. W. Harper at the Baylor College of Medicine, Houston, Tex.
(§2) Alternatively, inhibition activity may be measured using Ki. […] These were done in 96-well format and read in 384-well plate format. The assays were run at 3× their respective Kms for ATP.
(§3) Twenty microliters were added to the wells of a 96-well plate. […] Blank wells without CDK4 were included. The plates were incubated at 37° C. for 30 minutes with shaking. […] After 30 minutes at 37° C., 15 μl/well of 3 nM Lance-Eu-W1024 labeled anti-rabbit IgG and 60 nM Allophycocyanin conjugated anti-His6 (PerkinElmer Life Sciences) in 25 mM Hepes, pH 7.0, 0.5 mg/ml BSA were added. Following a one hour incubation at 37 deg C., 35 μl of each well, in duplicate, were transferred to 384-well black plates. The plates were read using either ViewLux or Victor V readers (PerkinElmer Life Sciences) using an excitation wavelength of 340 nm and dual emission wavelengths of 615 nm and 665 nm.
(§4) The CDK1 and CDK2 assays were similarly run except for small differences in reagent and protein concentrations:
The compound and enzyme buffers for both assays contained 10 mM MgCl2.

[1] = tested on: HCT116 colorectal carcinoma cell line; test: Tetrazolium dye proliferation assay (MTT assay); format: cell-based; settings: Homo sapiens, HCT-116, HCT116 cells
Description: Proliferation was evaluated by the tetrazolium dye assay according to the procedure of Denizot and Lang (Denizot, F. and Lang, R. J Immunol Methods 1986, 89, 271-277). The cell line used was HCT116, a colorectal carcinoma cell line obtained from the American Type Cell Culture Collection (ATCC; Rockville, Md.). The cells were grown in McCoy's 5A medium supplemented with 10% FCS and L-glutamine.
Cells were plated at the appropriate seeding density to give logarithmic growth over the course of the assay in a 96-well tissue culture plate. Plates were incubated overnight at 37° C. in a humidified incubator with 5% CO2. The next day, test compounds were serially diluted to four times the final concentration in the appropriate medium containing 1.2% DMSO. One-fourth final volume of each dilution was added in duplicate to the plates containing cells. The same volume of 1.2% DMSO in medium was added to a row of “control wells” such that the final concentration of DMSO in each well was 0.3%. Wells to which no cells were added served as the “blank.” Wells to which no inhibitor was added served as “no inhibitor control.” The plates were) returned to the incubator, and at set time points (determined by their growth curves) plates were analyzed as described below.
3-(4,5-dimethylthiazole-2-yl)-2,5-diphenyl-2H-tetrazolium bromide (thiazolyl blue; MTT; Sigma) was added to each well to yield a final concentration of 1 mg/ml. Plates were returned to the incubator for 2.5-3 hours at 37° C. The MTT-containing medium was removed and the resulting formazan metabolite was solubilized in 100% ethanol with shaking for 15 minutes at room temperature. Absorbance readings were taken in a microtiter plate reader (Dynatech and Molecular Devices plate readers were used interchangeably) at a wavelength of 570 nm with a 650 nm reference. Percent inhibition (% INH) is calculated by subtracting the absorbance of the blank well from all wells, then subtracting the ratio of the average absorbance of each test duplicate (SAVE) by the average of the controls (CAVE) from 1.00. The final number is then multiplied by 100 (% INH=(1.00−SAVE/CAVE)×100). The concentration at which 50% inhibition of cell proliferation is obtained (the IC50) is determined from the linear regression of a plot of the logarithm of the concentration versus percent inhibition.

human cyclin B-CDK1 = human cyclin B-CDK1 (Homo sapiens, UniProt P06493); test: CDK1 HTRF kinase assay (Ki measurement); format: biochemical; settings: ATP at 3x Km
human cyclin B-CDK1, sequence (P06493 whole entry): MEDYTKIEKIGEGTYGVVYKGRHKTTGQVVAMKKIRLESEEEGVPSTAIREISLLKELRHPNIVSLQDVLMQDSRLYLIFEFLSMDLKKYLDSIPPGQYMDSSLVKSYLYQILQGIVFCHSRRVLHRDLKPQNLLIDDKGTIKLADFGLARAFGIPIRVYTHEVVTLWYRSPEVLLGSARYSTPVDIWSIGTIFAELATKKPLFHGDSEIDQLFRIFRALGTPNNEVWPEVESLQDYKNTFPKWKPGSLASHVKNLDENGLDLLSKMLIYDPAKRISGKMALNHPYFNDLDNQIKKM
human cyclin B-CDK1, sequence (P14635 whole entry partner): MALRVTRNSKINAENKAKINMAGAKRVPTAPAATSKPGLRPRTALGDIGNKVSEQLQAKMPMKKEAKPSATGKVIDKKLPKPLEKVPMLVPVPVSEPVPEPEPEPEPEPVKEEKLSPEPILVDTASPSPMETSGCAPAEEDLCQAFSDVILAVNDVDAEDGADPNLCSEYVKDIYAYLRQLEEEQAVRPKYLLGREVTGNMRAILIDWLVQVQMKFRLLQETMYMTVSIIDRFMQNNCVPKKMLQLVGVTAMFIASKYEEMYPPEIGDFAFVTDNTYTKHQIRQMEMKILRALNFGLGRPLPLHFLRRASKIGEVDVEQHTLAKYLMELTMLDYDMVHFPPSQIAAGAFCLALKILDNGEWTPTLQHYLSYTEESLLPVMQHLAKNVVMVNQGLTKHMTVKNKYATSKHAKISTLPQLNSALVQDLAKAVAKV
Description: as §1, §2
as §3, with “nm. […] For ATP competitive inhibitors, the Ki values were calculated according to the following equation: Ki=IC50/(1+S/Km) where S refers to the substrate concentration and Km refers to the Michaelis-Menten constant.” for “nm.”
as §4
The compound and enzyme buffers for both assays contained 10 mM MgCl2. […] CDK1 at a reagent concentration of 0.15 ng/ul and CDK2 at a reagent concentration of 0.06 ng/ul were used.

human cyclin D1-CDK4 = human cyclin D1-CDK4 (Homo sapiens, UniProt P11802); test: CDK4 HTRF kinase assay (Ki measurement); format: biochemical; settings: ATP at 3x Km
human cyclin D1-CDK4, sequence (P11802 whole entry): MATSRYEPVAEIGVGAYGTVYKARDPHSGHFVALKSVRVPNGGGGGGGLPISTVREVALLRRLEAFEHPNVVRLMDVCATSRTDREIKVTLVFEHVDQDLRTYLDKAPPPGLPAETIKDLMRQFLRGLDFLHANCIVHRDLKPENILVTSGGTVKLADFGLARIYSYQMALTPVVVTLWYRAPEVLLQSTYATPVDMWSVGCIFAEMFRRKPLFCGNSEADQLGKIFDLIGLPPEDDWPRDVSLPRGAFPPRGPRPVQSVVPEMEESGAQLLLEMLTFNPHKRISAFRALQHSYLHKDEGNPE
human cyclin D1-CDK4, sequence (P24385 whole entry partner): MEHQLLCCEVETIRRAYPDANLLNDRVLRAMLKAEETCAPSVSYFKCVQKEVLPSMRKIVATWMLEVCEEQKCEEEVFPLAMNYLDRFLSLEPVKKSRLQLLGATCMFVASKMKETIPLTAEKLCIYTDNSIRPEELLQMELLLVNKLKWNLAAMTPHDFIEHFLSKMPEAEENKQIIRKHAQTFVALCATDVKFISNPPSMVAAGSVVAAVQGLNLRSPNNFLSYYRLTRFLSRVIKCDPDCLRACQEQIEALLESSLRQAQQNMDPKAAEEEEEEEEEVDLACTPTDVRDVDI
Description: To determine inhibition of Cdk4, Cdk2 and Cdk1 activity, kinase assays were conducted using FlashPlateTM assays (NENTM-Life Science Products). […] W. Harper at the Baylor College of Medicine, Houston, Tex. Proteins were co-expressed in High FiveTM insect cells and the complex was purified on glutathione Sepharose resin (Pharmacia, Piscataway, N.J.) as previously described (Harper, J. W. et al. Cell 1993, 75, 805-816). A 6×-Histidine tagged […]) was used as the substrate for the cycD1-CDK4, cycB-CDK1 and the cycE-CDK2 assays (the expression plasmid was provided by Dr. Veronica Sullivan, Department of Molecular Virology, Roche Research Centre, Welwyn Garden City, United Kingdom). The Rb protein is a natural substrate for phosphorylation by CDK4, CDK2 and CDK1 (see Herwig and Strauss Eur. J. Biochem. Vol. 246 (1997) pp. 581-601 and the references cited therein). Alternatively, inhibition activity may be measured using Ki. Using the protein constructs described above in Example 19A above, CDK1, CDK2, and CDK4 HTRF assays were set up. These were done in 96-well format and read in 384-well plate format. The assays were run at 3× their respective Kms for ATP. In the CDK4 assay, test compounds were diluted to 3× their final concentrations in 25 mM Hepes, pH 7.0, 6.25 mM MgCl2, 1.5 mM DTT, 135 μM ATP. The DMSO concentration was no greater than 4.76%. Twenty microliters were added to the wells of a 96-well plate. The kinase reaction was initiated by the addition of 40 μl/well of a solution containing 0.185 μM Rb and 2.25 μg/ml CDK4 in 25 mM Hepes, pH 7.0, 6.25 mM MgCl2, 0.003% Tween-20, 0.3 mg/ml BSA, 1.5 mM DTT. Blank wells without CDK4 were included. The plates were incubated at 37° C. for 30 minutes with shaking. The kinase reaction was terminated by the addition of 15 μl/well of 1.6 uM anti-phospho-Rb ([…]) antibody (Cell Signaling Inc.) in 25 mM Hepes, pH 7.0, 24 mM EDTA, 0.2 mg/ml BSA. After 30 minutes at 37° C., 15 μl/well of 3 nM Lance-Eu-W1024 labeled anti-rabbit IgG and 60 nM Allophycocyanin conjugated anti-His6 (PerkinElmer Life Sciences) in 25 mM Hepes, pH 7.0, 0.5 mg/ml BSA were added. Following a one hour incubation at 37 deg C., 35 μl of each well, in duplicate, were transferred to 384-well black plates. The plates were read using either ViewLux or Victor V readers (PerkinElmer Life Sciences) using an excitation wavelength of 340 nm and dual emission wavelengths of 615 nm and 665 nm. IC50 values (the concentration of test compounds reducing the assay control fluorescence read-out by 50%) were first calculated from net readings at 665 nm, normalized for europium readings at 615 nm. For ATP competitive inhibitors, the Ki values were calculated according to the following equation: […]

[2] = HTRF assay, ATP at 3x Km, read-out: Ki CDK2

| Compound | pKi (human cyclin E-CDK2; [2]) | pIC50 [1] | pKi (human cyclin B-CDK1) | pKi (human cyclin D1-CDK4) | pKi (human cyclin E-CDK2) |
| --- | --- | --- | --- | --- | --- |
| COc1ccc(F)c(F)c1C(=S)c1cnc(N[C@H]2CC[C@H](NS(C)(=O)=O)CC2)nc1N [Example 2, N-{4-[4-Amino-5-(2,3-difluoro-6-methoxy-thiobenzoyl)-pyrimidin-2-ylamino]-cyclohexyl}methanesulfonamide] | 9.74 | 7.92 | 9.57 | 9.22 |  |
| CS(=O)(=O)N1CCC(Nc2ncc(C(=S)c3c(Cl)ccc(F)c3F)c(N)n2)CC1 [Example 13, [4-Amino-2-(1-methanesulfonyl-piperidin-4-ylamino)-pyrimidin-5-yl]-(6-chloro-2,3-difluoro-phenyl)-methanethione] | 9.00 | 6.75 | 8.52 | 8.52 |  |

Further compounds by rising pIC50 [1], results first:

| pKi (human cyclin E-CDK2; [2]) | pIC50 [1] | pKi (human cyclin B-CDK1) | pKi (human cyclin D1-CDK4) | pKi (human cyclin E-CDK2) | Compound |
| --- | --- | --- | --- | --- | --- |
|  | 6.77 | 8.52 | 9.00 | 9.00 | CS(=O)(=O)N1CCC(Nc2ncc(C(=S)c3c(F)cccc3F)c(N)n2)CC1 [Example 15, [4-Amino-2-(1-methanesulfonyl-piperidin-4-ylamino)-pyrimidin-5-yl]-(2,6-difluoro-phenyl)-methanethione] |
| 9.57 | 7.89 | 9.38 | 8.88 |  | COc1ccc(F)c(F)c1C(=S)c1cnc(N[C@H]2CC[C@H](N(C)S(C)(=O)=O)CC2)nc1N [Example 3, N-{4-[4-Amino-5-(2,3-difluoro-6-methoxy-thiobenzoyl)-pyrimidin-2-ylamino]-cyclohexyl}-N-methylmethanesulfonamide] |
| 10.00 | 7.89 | 8.52 | 9.59 |  | CS(=O)(=O)N1CCC(Nc2ncc(C(=S)c3c(F)c(F)cc4ccoc34)c(N)n2)CC1 [Example 6, [4-Amino-2-(1-methanesulfonyl-piperidin-4-ylamino)-pyrimidin-5-yl]-(5,6-difluoro-benzofuran-7-yl)-methanethione] |
